Data on 13 molecules can be found in ChEMBL document CHEMBL1126165, “Preparation and evaluation of some hydrophilic phenylacetyl-piperazines as peripherally selective -opioid receptor agonists” (Bioorg Med Chem Lett, 1992).

SMILES strings stand for the structures. Some results are limits rather than exact numbers.

Data set [1] relates to Mus musculus. In words: Tested in vivo for antinociceptive activity using the mouse acetylcholine induced abdominal constriction test by subcutaneous (s.c.) administration. The conditions noted are these: Abdomen, sc. It is filed as functional.
A short description of data set [2]: Ratio of antinociceptive activity measured using mouse acetylcholine induced abdominal constriction test by s.c. administration to that done by i.c.v. It is filed as functional, Abdomen.
Data set [3] can be described thus: Lipophilicity was expressed as Log D. The conditions noted are these: octanol/water.
In data set [4] the test system is Mus musculus. In words: Tested in vivo for antinociceptive activity using the mouse acetylcholine induced abdominal constriction test by intracerebroventricular (i.c.v.) administration. It is filed as functional. Particulars: Abdomen, central.

The term ED50 denotes the dose that gives a 50% effect, or the effect in half of the subjects. A high value points to a need for a large dose. Broadly, the logD is the decadic logarithm of the distribution of all forms, ionised or not, between an organic phase and buffer at a given pH. Low readings indicate lower lipophilicity, high ones higher lipophilicity. As to `CC(=O)N1CCN(C(=O)Cc2ccc(Cl)c(Cl)c2)C(CN2CC[C@H](O)C2)C1` (some centres not stated), the ED50 in the data set on Mus musculus [1] is 0.7 mg/kg; in the data set on Mus musculus [4] it was 0.007 mg/kg. The Ratio in data set [2] stood at 100. The molecule further gave a logD in data set [3] of 1.2.

Turning to `CC(=O)N1CCN(C(=O)Cc2cc(F)cc(F)c2)C(CN2CC[C@H](O)C2)C1` (some centres not stated), the ED50 in the data set with Mus musculus [1] came out at 2.5 mg/kg; in the data set on Mus musculus [4], 0.006 mg/kg. In addition, in data set [2], the Ratio was determined as 417. Moreover, the logD in data set [3] was 0.3.

`CC(=O)N1CCN(C(=O)Cc2ccccc2)C(CN2CC[C@H](O)C2)C1` (some centres not stated) came in with a logD in data set [3] of -0.1.

`CN(C(=O)Cc1ccc(Cl)c(Cl)c1)C(CN1CCCC1)c1cccc(OCC(=O)O)c1` (configuration not stated) [ICI-204448]: the ED50 came to 4.4 mg/kg in the data set with Mus musculus [1] and 0.13 mg/kg in the data set on Mus musculus [4]. The molecule further came in with a log distribution coefficient (logD) in data set [3] of 0.3.

Regarding `CC(=O)N1CCN(C(=O)Cc2ccc(C(F)(F)F)cc2)C(CN2CC[C@H](O)C2)C1` (some centres not stated), the 50% effective dose (ED50) in the data set on Mus musculus [1] amounted to 0.76 mg/kg; with Mus musculus [4], 0.008 mg/kg. The Ratio in data set [2] is listed as 95. This molecule also gave a logD in data set [3] of 1.

As to `CC(=O)N1CCN(C(=O)Cc2ccc(S(C)(=O)=O)cc2)C(CN2CC[C@H](O)C2)C1` (some centres not stated), the ED50 in the data set with Mus musculus [1] is 2.21 mg/kg; in the data set on Mus musculus [4] it was 0.0008 mg/kg. For the same molecule, in data set [2], the Ratio stood at 2762. Further, the logD in data set [3] is less than -0.5.

Regarding `CSc1ccc(CC(=O)N2CCN(C(C)=O)CC2CN2CC[C@H](O)C2)cc1` (some centres not stated), the ED50 with Mus musculus [1] stood at 1.52 mg/kg; in the data set with Mus musculus [4], 0.075 mg/kg. Besides, the Ratio in data set [2] was 20. This molecule registered a logD in data set [3] of 0.6.

In data set [3], `COc1cccc(CC(=O)N2CCN(C(C)=O)CC2CN2CC[C@H](O)C2)c1` (some centres not stated) registered a pH-dependent lipophilicity (logD) of 0.

Take `CC(=O)N1CCN(C(=O)Cc2ccc([N+](=O)[O-])cc2)C(CN2CC[C@H](O)C2)C1` (some centres not stated): the ED50 in the data set on Mus musculus [1] is 4.8 mg/kg; with Mus musculus [4], 0.024 mg/kg. Also, the Ratio in data set [2] is 200. Besides, in data set [3], the logD came out at 0.

Turning to `COC(=O)N1CCN(C(=O)Cc2ccc(Cl)c(Cl)c2)[C@H](CN2CCCC2)C1`, the ED50 in the data set on Mus musculus [1] worked out at 0.0003 mg/kg; in the data set with Mus musculus [4], 0.0002 mg/kg. For the same molecule, the Ratio in data set [2] was 1.5. Further, the logD in data set [3] is 3.1.

As for `CC(=O)N1CCN(C(=O)Cc2cccc([N+](=O)[O-])c2)C(CN2CC[C@H](O)C2)C1` (some centres not stated), the 50% effective dose (ED50) in the data set with Mus musculus [1] is 0.74 mg/kg; in the data set with Mus musculus [4] it was 0.006 mg/kg.

In turn, `CC(=O)N1CCN(C(=O)Cc2ccc([S+](C)[O-])cc2)C(CN2CC[C@H](O)C2)C1` (some centres not stated) displayed a logD in data set [3] of less than -0.5.

Take `COc1ccc(CC(=O)N2CCN(C(C)=O)CC2CN2CC[C@H](O)C2)cc1` (some centres not stated): the pH-dependent lipophilicity (logD) in data set [3] is -0.1.
